Calls of active or inactive are those of the source. No rule for the calls is given here.

The values that follow come from PubChem BioAssay AID1745844 (Carcinogenic Potency Database (CPDB), 2022).

The subject of the data set is rodent lifetime carcinogenesis bioassay, tumor incidence TD50. The data set can be described thus: carcinogenic potency in animals, long-term in vivo studies, CPDB compilation (AID 1745844).
[1] abbreviates: mouse, strain B6AKF1, females, oral dosing, site: lung, lesion: adenoma, dosed 76 weeks, study length 76 weeks.
Where [2] appears, read: mouse, strain B6AKF1, males, oral dosing, site: any site (literature study), lesion: several types, types named in the paper, dosed 76 weeks, study length 76 weeks.
The mark [3] stands for this setting: mouse, strain B6C3F1, males, oral dosing, site: any site (literature study), lesion: several types, types named in the paper, dosed 76 weeks, study length 76 weeks.
The mark [4] stands for this setting: mouse, strain B6C3F1, males, oral dosing, site: liver, lesion: hepatoma, dosed 76 weeks, study length 76 weeks.
Setting [5] is: mouse, strain B6C3F1, males, oral dosing, site: lung, lesion: adenoma, dosed 76 weeks, study length 76 weeks.

As for `CC(=O)CN(CC(C)=O)N=O`, the TD50 (commonly the 50% point of the dose-response relation for the toxic effect studied) by setting is: (rat, strain Fischer 344, females, by gavage, site: liver, lesion: hepatocellular carcinoma, dosed 30 weeks, study length 95 weeks) 0.684 mg/kg/day; (rat, strain Fischer 344, females, in drinking water, site: liver, lesion: hemangiosarcoma, dosed 50 weeks, study length 75 weeks) 0.892 mg/kg/day; (rat, strain Fischer 344, females, in drinking water, site: liver, lesion: hepatocellular carcinoma, dosed 50 weeks, study length 75 weeks) 0.582 mg/kg/day; (rat, strain Fischer 344, females, in drinking water, site: liver, lesion: several types, types named in the paper, dosed 50 weeks, study length 75 weeks) 0.232 mg/kg/day; (rat, strain Fischer 344, females, in drinking water, site: lung, lesion: several types, types named in the paper, dosed 50 weeks, study length 75 weeks) 0.399 mg/kg/day; (rat, strain MRC-Wistar, males, by gavage, site: colorectum, lesion: one or several types, types not named, dosed 104 weeks, study length 104 weeks) 1.56 mg/kg/day. In addition, the TD50 by setting is: (rat, strain MRC-Wistar, males, by gavage, site: liver, lesion: one or several types, types not named, dosed 104 weeks, study length 104 weeks) 1.56 mg/kg/day; (rat, strain MRC-Wistar, males, by gavage, site: lung, lesion: one or several types, types not named, dosed 104 weeks, study length 104 weeks) 1.92 mg/kg/day; (rat, strain MRC-Wistar, males, by gavage, site: nasal cavity, lesion: one or several types, types not named, dosed 104 weeks, study length 104 weeks) 1.56 mg/kg/day; (rat, strain MRC-Wistar, males, by gavage, site: prostate, lesion: carcinoma, dosed 74 weeks, study length 74 weeks) 1.53 mg/kg/day; (rat, strain MRC-Wistar, males, by gavage, site: prostate, lesion: squamous-cell carcinoma, keratinized, dosed 104 weeks, study length 104 weeks) 2.41 mg/kg/day; (rat, strain MRC-Wistar, males, by gavage, site: thyroid gland, lesion: one or several types, types not named, dosed 104 weeks, study length 104 weeks) 3.16 mg/kg/day. For the same compound, the TD50 (rat, strain MRC-Wistar, males, by gavage, site: urethra, lesion: several types, types named in the paper, dosed 104 weeks, study length 104 weeks) was 0.891 mg/kg/day; the TD50 (rat, strain MRC, females, by gavage, site: any site (literature study), lesion: one or several types, types not named, dosed 73 weeks, study length 77 weeks) was determined as 0.171 mg/kg/day; the TD50 (rat, strain MRC, females, by gavage, site: liver, lesion: several types, types named in the paper, dosed 73 weeks, study length 77 weeks) was 0.283 mg/kg/day; the TD50 (rat, strain MRC, females, by gavage, site: lung, lesion: adenoma, dosed 73 weeks, study length 77 weeks) was determined as 14 mg/kg/day; the TD50 (rat, strain MRC, females, by gavage, site: nasal and paranasal cavity, lesion: several types, types named in the paper, dosed 73 weeks, study length 77 weeks) turned out to be 14 mg/kg/day; the TD50 (rat, strain MRC, females, by gavage, site: thyroid gland, lesion: several types, types named in the paper, dosed 73 weeks, study length 77 weeks) is 1.39 mg/kg/day. The TD50 (rat, strain MRC, males, by gavage, site: any site (literature study), lesion: one or several types, types not named, dosed 72 weeks, study length 80 weeks) amounted to 0.0995 mg/kg/day; the TD50 (rat, strain MRC, males, by gavage, site: colon, lesion: several types, types named in the paper, dosed 72 weeks, study length 80 weeks) is 1.6 mg/kg/day; the TD50 (rat, strain MRC, males, by gavage, site: liver, lesion: several types, types named in the paper, dosed 72 weeks, study length 80 weeks) was 0.989 mg/kg/day; the TD50 (rat, strain MRC, males, by gavage, site: lung, lesion: several types, types named in the paper, dosed 72 weeks, study length 80 weeks) was 1.1 mg/kg/day; the TD50 (rat, strain MRC, males, by gavage, site: nasal and paranasal cavity, lesion: several types, types named in the paper, dosed 72 weeks, study length 80 weeks) was 1.23 mg/kg/day; the TD50 (rat, strain MRC, males, by gavage, site: prostate, lesion: squamous-cell carcinoma, dosed 72 weeks, study length 80 weeks) was 2.21 mg/kg/day. In addition, the TD50 (rat, strain MRC, males, by gavage, site: thyroid gland, lesion: several types, types named in the paper, dosed 72 weeks, study length 80 weeks) came to 0.968 mg/kg/day and the TD50 (rat, strain MRC, males, by gavage, site: urethra, lesion: papilloma, dosed 72 weeks, study length 80 weeks) was 0.878 mg/kg/day.

Turning to `OCc1ccccc1`, the TD50 was 57500 mg/kg/day (inactive) (mouse, strain B6C3F1, females, by gavage, site: any site (literature study), lesion: several types, types named in the paper, dosed 103 weeks, study length 104 weeks); 1040 mg/kg/day (mouse, strain B6C3F1, females, by gavage, site: liver, lesion: hepatocellular adenoma + hepatocellular carcinoma + neoplastic nodule, dosed 103 weeks, study length 104 weeks); 1620 mg/kg/day (inactive) (mouse, strain B6C3F1, males, by gavage, site: adrenal gland, lesion: cortical adenoma, dosed 103 weeks, study length 104 weeks); 588 mg/kg/day (mouse, strain B6C3F1, males, by gavage, site: liver, lesion: hepatocellular adenoma + hepatocellular carcinoma + neoplastic nodule, dosed 103 weeks, study length 104 weeks); 546 mg/kg/day (mouse, strain B6C3F1, males, by gavage, site: lung, lesion: alveolar/bronchiolar adenoma + alveolar/bronchiolar carcinoma, dosed 103 weeks, study length 104 weeks); 885 mg/kg/day (inactive) (rat, strain Fischer 344, females, by gavage, site: any site (literature study), lesion: several types, types named in the paper, dosed 103 weeks, study length 104 weeks). Further, the TD50 by setting is: (rat, strain Fischer 344, males, by gavage, site: mammary gland, lesion: adenoma, NOS + fibroadenoma, dosed 103 weeks, study length 104 weeks) 1140 mg/kg/day (inactive); (rat, strain Fischer 344, males, by gavage, site: mammary gland, lesion: fibroadenoma, dosed 103 weeks, study length 104 weeks) 1380 mg/kg/day.

Consider `CCCCCCCCCCCCN=C(N)N`, for which the carcinogen call was “negative (inactive)” (mouse, strain B6AKF1, females, oral dosing, site: any site (literature study), lesion: several types, types named in the paper, dosed 76 weeks, study length 76 weeks); “negative (inactive)” (mouse, strain B6AKF1, females, oral dosing, site: liver, lesion: hepatoma, dosed 76 weeks, study length 76 weeks); “negative (inactive)” under setting [1]; “negative (inactive)” (mouse, strain B6AKF1, males, oral dosing, site: liver, lesion: hepatoma, dosed 76 weeks, study length 76 weeks); “negative (inactive)” (mouse, strain B6C3F1, females, oral dosing, site: lung, lesion: several types, types named in the paper, dosed 76 weeks, study length 76 weeks). Also, the TD50 was 149 mg/kg/day (inactive) under setting [2]; 41.9 mg/kg/day (inactive) (mouse, strain B6AKF1, males, oral dosing, site: lung, lesion: several types, types named in the paper, dosed 76 weeks, study length 76 weeks); 54.7 mg/kg/day (inactive) (mouse, strain B6C3F1, females, oral dosing, site: any site (literature study), lesion: several types, types named in the paper, dosed 76 weeks, study length 76 weeks); 54.7 mg/kg/day (inactive) (mouse, strain B6C3F1, females, oral dosing, site: liver, lesion: hepatoma, dosed 76 weeks, study length 76 weeks); 10.8 mg/kg/day (inactive) under setting [3]; 19.4 mg/kg/day (inactive) under setting [4]. Moreover, the TD50 under setting [5] was 30.1 mg/kg/day (inactive).

As for `CCCCOC(=O)c1ccc(O)cc1`, the TD50 (mouse, strain ICR/Jcl, females, in feed, site: any site (literature study), lesion: several types, types named in the paper, dosed 102 weeks, study length 106 weeks) was 2720 mg/kg/day (inactive); the TD50 (mouse, strain ICR/Jcl, females, in feed, site: lung, lesion: one or several types, types not named, dosed 102 weeks, study length 106 weeks) is 5100 mg/kg/day (inactive); the TD50 (mouse, strain ICR/Jcl, males, in feed, site: any site (literature study), lesion: several types, types named in the paper, dosed 102 weeks, study length 106 weeks) was 5240 mg/kg/day (inactive); the TD50 (mouse, strain ICR/Jcl, males, in feed, site: liver, lesion: one or several types, types not named, dosed 102 weeks, study length 106 weeks) was 27400 mg/kg/day (inactive); the TD50 (mouse, strain ICR/Jcl, males, in feed, site: lung, lesion: one or several types, types not named, dosed 102 weeks, study length 106 weeks) is 119000 mg/kg/day (inactive). Moreover, the carcinogen call (mouse, strain ICR/Jcl, females, in feed, site: liver, lesion: one or several types, types not named, dosed 102 weeks, study length 106 weeks) is “negative (inactive)”.

For the compound `Cc1cc(C)nc(-c2ccc([N+](=O)[O-])o2)n1`, the carcinogen call (rat, strain Sprague-Dawley, females, in feed, site: forestomach, lesion: squamous-cell carcinoma, dosed 42 weeks, study length 59 weeks) is “positive”. Moreover, the TD50 is, setting by setting: (rat, strain Sprague-Dawley, females, in feed, site: intestine, lesion: hemangioendothelial sarcoma, dosed 42 weeks, study length 59 weeks) 3.43 mg/kg/day; (rat, strain Sprague-Dawley, females, in feed, site: intestine, lesion: sarcoma, dosed 42 weeks, study length 59 weeks) 2.61 mg/kg/day; (rat, strain Sprague-Dawley, females, in feed, site: kidney, lesion: transitional-cell carcinoma, dosed 42 weeks, study length 59 weeks) 45.5 mg/kg/day; (rat, strain Sprague-Dawley, females, in feed, site: mammary gland, lesion: adenocarcinoma, dosed 42 weeks, study length 59 weeks) 6.45 mg/kg/day.

With `CCN(CC)C(=S)S`, the TD50 stood at 607 mg/kg/day under setting [1]; 403 mg/kg/day under setting [2]; 155 mg/kg/day (mouse, strain B6AKF1, males, oral dosing, site: lung, lesion: adenoma, dosed 76 weeks, study length 76 weeks); 27000 mg/kg/day (mouse, strain B6C3F1, females, in feed, site: liver, lesion: hepatocellular adenoma + hepatocellular carcinoma + neoplastic nodule, dosed 108 weeks, study length 108 weeks); 4760 mg/kg/day (mouse, strain B6C3F1, females, in feed, site: lung, lesion: alveolar/bronchiolar adenoma + alveolar/bronchiolar carcinoma, dosed 108 weeks, study length 108 weeks); 10300 mg/kg/day (mouse, strain B6C3F1, males, in feed, site: lung, lesion: alveolar/bronchiolar adenoma + alveolar/bronchiolar carcinoma, dosed 108 weeks, study length 108 weeks). Further, the TD50 by setting is: under setting [3], 71.4 mg/kg/day; under setting [4], 68.7 mg/kg/day; under setting [5], 468 mg/kg/day. Also, the carcinogen call is, setting by setting: (mouse, strain B6C3F1, females, in feed, site: any site (literature study), lesion: several types, types named in the paper, dosed 108 weeks, study length 108 weeks) “negative (inactive)”; (mouse, strain B6C3F1, males, in feed, site: any site (literature study), lesion: several types, types named in the paper, dosed 108 weeks, study length 108 weeks) “negative (inactive)”; (rat, strain Fischer 344, females, in feed, site: any site (literature study), lesion: several types, types named in the paper, dosed 104 weeks, study length 104 weeks) “negative (inactive)”; (rat, strain Fischer 344, males, in feed, site: any site (literature study), lesion: several types, types named in the paper, dosed 104 weeks, study length 104 weeks) “negative (inactive)”.

For the compound `Cn1cc(C(=O)O)c(=O)c2ccc(/C=C/c3ccc([N+](=O)[O-])o3)nc21`, the TD50 (mouse, strain ICR/Jcl, both sexes, in feed, site: forestomach, lesion: squamous-cell carcinoma, dosed 54 weeks, study length 54 weeks) is 10.3 mg/kg/day; the TD50 (mouse, strain ICR/Jcl, both sexes, in feed, site: lung, lesion: adenoma, dosed 54 weeks, study length 54 weeks) is 8.03 mg/kg/day; the TD50 (mouse, strain ICR/Jcl, both sexes, in feed, site: lung, lesion: carcinoma, dosed 54 weeks, study length 54 weeks) is 21.9 mg/kg/day; the TD50 (mouse, strain ICR/Jcl, both sexes, in feed, site: thymus gland, lesion: lymphatic leukemia, dosed 54 weeks, study length 54 weeks) was 26.5 mg/kg/day.
